Measured values from patent US20120029187A1, “HALOALKYLSULFONANILIDE DERIVATIVE” (Nissan Chemical Industries, Ltd., priority 2009, published 2012).

Assays:
Type in all cases: in vivo
Italian ryegrass [1] = test: Test Example 4: herbicidal effect in foliage treatment; conditions: three weeks after application
Summary of the method: (§1)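 Seeds sown in sterilized diluvial soil under ~1.5 cm soil cover and grown 14 days in a greenhouse at 25 to 30° C. Emulsifiable concentrates diluted with water were then sprayed uniformly on foliage at predetermined doses (g/a). Herbicidal effect was scored three weeks after application on a graded evaluation scale.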

beadstraw = test: as above; conditions: three weeks after application
Summary of the method: as §1

common lambsquater [2] = test: as above; conditions: three weeks after application
Summary of the method: as §1

water foxtail [3] = test: as above; conditions: three weeks after application
Summary of the method: as §1

common ragweed [4] = test: as above; conditions: three weeks after application
Summary of the method: as §1

large crabgrass [5] = test: as above; conditions: three weeks after application
Summary of the method: as §1

giant foxtail [6] = test: as above; conditions: three weeks after application
Summary of the method: as §1

barnyardgrass [7] = test: as above; conditions: three weeks after application
Summary of the method: as §1

common chickweed [8] = test: as above; conditions: three weeks after application
Summary of the method: as §1

redroot pigweed [9] = test: as above; conditions: three weeks after application
Summary of the method: as §1

wild oat [10] = test: as above; conditions: three weeks after application
Summary of the method: as §1

posumbu knotweed [11] = test: as above; conditions: three weeks after application
Summary of the method: as §1

velvetleaf [12] = test: as above; conditions: three weeks after application
Summary of the method: as §1

Italian ryegrass [13] = test: Test Example 3: herbicidal effects in soil treatment
Summary of the method: (§2)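 Seeds were sown in sterilized diluvial soil and covered with about 1.5 cm of soil. Compounds, formulated as emulsifiable concentrates and diluted with water, were sprayed evenly over the soil surface at set doses in g/a. Herbicidal effect was scored on a rating scale three weeks later.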

common lambsquater [14] = test: as above
Summary of the method: as §2

water foxtail [15] = test: as above
Summary of the method: as §2

common ragweed [16] = test: as above
Summary of the method: as §2

large crabgrass [17] = test: as above
Summary of the method: as §2

giant foxtail [18] = test: as above
Summary of the method: as §2

barnyardgrass [19] = test: as above
Summary of the method: as §2

common chickweed [20] = test: as above
Summary of the method: as §2

redroot pigweed [21] = test: as above
Summary of the method: as §2

wild oat [22] = test: as above
Summary of the method: as §2

posumbu knotweed [23] = test: as above
Summary of the method: as §2

velvetleaf [24] = test: as above
Summary of the method: as §2

ducksalad [25] = test: Test Example 2: herbicidal effects during the vegetation period under submerged conditions; conditions: treatment during the vegetation period under submerged conditions; dose 2.52 g/a
Summary of the method: (§3)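 Barnyardgrass, bulrush and ducksalad were co-sown in alluvial soil flooded to 4 cm and grown in a greenhouse at 25 to 30° C. At the 1- or 2-leaf stage, water-diluted emulsifiable concentrates went onto the water surface at set doses (g/a). Herbicidal effect was scored three weeks later on a graded scale.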

barnyardgrass [26] = test: as above; conditions: treatment during the vegetation period under submerged conditions; dose 2.52 g/a
Summary of the method: as §3

bulrush [27] = test: as above; conditions: treatment during the vegetation period under submerged conditions; dose 2.52 g/a
Summary of the method: as §3

transplanted rice = test: Test Example 1: preemergence treatment under submerged conditions, effect on crop; conditions: dose 2.52 g/a
Summary of the method: (§4)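 Weed seeds and 2.5-leaf rice seedlings shared each flooded cup of alluvial soil. Dosing, expressed as g per are, was by pouring water-diluted emulsifiable concentrate onto the surface on sowing day. Mortality was graded 0 to 5 after three weeks' growth.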

ducksalad [28] = test: Test Example 1: herbicidal effects in preemergence treatment under submerged conditions; conditions: dose 2.52 g/a
Summary of the method: as §4

barnyardgrass [29] = test: as above; conditions: dose 2.52 g/a
Summary of the method: as §4

bulrush [30] = test: as above; conditions: dose 2.52 g/a
Summary of the method: as §4

## CCOC(=O)N(c1ccccc1CN1C(=O)COCC1C)S(=O)(=O)C(F)(F)F (stereo not shown) [Compound I-14]
Italian ryegrass [1]; dose 3.2 g/a
  H: Italian ryegrass, herbicidal effect: 5 (mortality of 90% or above (nearly complete death))
beadstraw; dose 3.2 g/a
  O: beadstraw, herbicidal effect: 4 (mortality of at least 70% and less than 90%)
Common lambsquater [2]; dose 3.2 g/a
  L: common lambsquater, herbicidal effect: 5 (mortality of 90% or above (nearly complete death))
Water foxtail [3]; dose 3.2 g/a
  G: water foxtail, herbicidal effect: 5 (mortality of 90% or above (nearly complete death))
Common ragweed [4]; dose 3.2 g/a
  J: common ragweed, herbicidal effect: 4 (mortality of at least 70% and less than 90%)
Large crabgrass [5]; dose 3.2 g/a
  D: large crabgrass, herbicidal effect: 4 (mortality of at least 70% and less than 90%)
Giant foxtail [6]; dose 3.2 g/a
  E: giant foxtail, herbicidal effect: 4 (mortality of at least 70% and less than 90%)
Barnyardgrass [7]; dose 3.2 g/a
  A: barnyardgrass, herbicidal effect: 5 (mortality of 90% or above (nearly complete death))
Common chickweed [8]; dose 3.2 g/a
  N: common chickweed, herbicidal effect: 4 (mortality of at least 70% and less than 90%)
Redroot pigweed [9]; dose 3.2 g/a
  K: redroot pigweed, herbicidal effect: 4 (mortality of at least 70% and less than 90%)
Wild oat [10]; dose 3.2 g/a
  F: wild oat, herbicidal effect: 0 (mortality of less than 5% (almost ineffective))
Posumbu knotweed [11]; dose 3.2 g/a
  M: posumbu knotweed, herbicidal effect: 4 (mortality of at least 70% and less than 90%)
Velvetleaf [12]; dose 3.2 g/a
  I: velvetleaf, herbicidal effect: 5 (mortality of 90% or above (nearly complete death))
Italian ryegrass [13]; dose 3.2 g/a
  H: Italian ryegrass, herbicidal effect (evaluation scale 0-5): 5 (mortality of 90% or above (nearly complete death))
Common lambsquater [14]; dose 3.2 g/a
  L: common lambsquater, herbicidal effect (evaluation scale 0-5): 5 (mortality of 90% or above (nearly complete death))
Water foxtail [15]; dose 3.2 g/a
  G: water foxtail, herbicidal effect (evaluation scale 0-5): 5 (mortality of 90% or above (nearly complete death))
Common ragweed [16]; dose 3.2 g/a
  J: common ragweed, herbicidal effect (evaluation scale 0-5): 5 (mortality of 90% or above (nearly complete death))
Large crabgrass [17]; dose 3.2 g/a
  D: large crabgrass, herbicidal effect (evaluation scale 0-5): 5 (mortality of 90% or above (nearly complete death))
Giant foxtail [18]; dose 3.2 g/a
  E: giant foxtail, herbicidal effect (evaluation scale 0-5): 5 (mortality of 90% or above (nearly complete death))
Barnyardgrass [19]; dose 3.2 g/a
  A: barnyardgrass, herbicidal effect (evaluation scale 0-5): 5 (mortality of 90% or above (nearly complete death))
Common chickweed [20]; dose 3.2 g/a
  N: common chickweed, herbicidal effect (evaluation scale 0-5): 5 (mortality of 90% or above (nearly complete death))
Redroot pigweed [21]; dose 3.2 g/a
  K: redroot pigweed, herbicidal effect (evaluation scale 0-5): 5 (mortality of 90% or above (nearly complete death))
Wild oat [22]; dose 3.2 g/a
  F: wild oat, herbicidal effect (evaluation scale 0-5): 4 (mortality of at least 70% and less than 90%)
Posumbu knotweed [23]; dose 3.2 g/a
  M: posumbu knotweed, herbicidal effect (evaluation scale 0-5): 5 (mortality of 90% or above (nearly complete death))
Velvetleaf [24]; dose 3.2 g/a
  I: velvetleaf, herbicidal effect (evaluation scale 0-5): 5 (mortality of 90% or above (nearly complete death))
Ducksalad [25]
  C: ducksalad, herbicidal effect (evaluation scale 0-5): 5 (mortality of 90% or above (nearly complete death))
Barnyardgrass [26]
  A: barnyardgrass, herbicidal effect (evaluation scale 0-5): 5 (mortality of 90% or above (nearly complete death))
Bulrush [27]
  B: bulrush, herbicidal effect (evaluation scale 0-5): 5 (mortality of 90% or above (nearly complete death))
Transplanted rice
  a: transplanted rice, effect on crop (evaluation scale 0-5): 0 (mortality of less than 5% (almost ineffective))
Ducksalad [28]
  C: ducksalad, herbicidal effect (evaluation scale 0-5): 5 (mortality of 90% or above (nearly complete death))
Barnyardgrass [29]
  A: barnyardgrass, herbicidal effect (evaluation scale 0-5): 5 (mortality of 90% or above (nearly complete death))
Bulrush [30]
  B: bulrush, herbicidal effect (evaluation scale 0-5): 5 (mortality of 90% or above (nearly complete death))

## CCOC(=O)N(c1ccccc1CN1CCOCC1=O)S(=O)(=O)C(F)(F)F [Compound I-2, 4-[2-(N-ethoxycarbonyl-N-trifluoromethanesulfonyl)aminobenzyl]-1,4-oxazinan-3-one]
Italian ryegrass [1]; dose 6.3 g/a
  H: Italian ryegrass, herbicidal effect: 4 (mortality of at least 70% and less than 90%)
beadstraw; dose 6.3 g/a
  O: beadstraw, herbicidal effect: 5 (mortality of 90% or above (nearly complete death))
Common lambsquater [2]; dose 6.3 g/a
  L: common lambsquater, herbicidal effect: 4 (mortality of at least 70% and less than 90%)
Water foxtail [3]; dose 6.3 g/a
  G: water foxtail, herbicidal effect: 5 (mortality of 90% or above (nearly complete death))
Common ragweed [4]; dose 6.3 g/a
  J: common ragweed, herbicidal effect: 3 (mortality of at least 40% and less than 70%)
Large crabgrass [5]; dose 6.3 g/a
  D: large crabgrass, herbicidal effect: 5 (mortality of 90% or above (nearly complete death))
Giant foxtail [6]; dose 6.3 g/a
  E: giant foxtail, herbicidal effect: 5 (mortality of 90% or above (nearly complete death))
Barnyardgrass [7]; dose 6.3 g/a
  A: barnyardgrass, herbicidal effect: 5 (mortality of 90% or above (nearly complete death))
Common chickweed [8]; dose 6.3 g/a
  N: common chickweed, herbicidal effect: 4 (mortality of at least 70% and less than 90%)
Redroot pigweed [9]; dose 6.3 g/a
  K: redroot pigweed, herbicidal effect: 3 (mortality of at least 40% and less than 70%)
Wild oat [10]; dose 6.3 g/a
  F: wild oat, herbicidal effect: 3 (mortality of at least 40% and less than 70%)
Posumbu knotweed [11]; dose 6.3 g/a
  M: posumbu knotweed, herbicidal effect: 4 (mortality of at least 70% and less than 90%)
Velvetleaf [12]; dose 6.3 g/a
  I: velvetleaf, herbicidal effect: 5 (mortality of 90% or above (nearly complete death))
Italian ryegrass [13]; dose 6.3 g/a
  H: Italian ryegrass, herbicidal effect (evaluation scale 0-5): 5 (mortality of 90% or above (nearly complete death))
Common lambsquater [14]; dose 6.3 g/a
  L: common lambsquater, herbicidal effect (evaluation scale 0-5): 5 (mortality of 90% or above (nearly complete death))
Water foxtail [15]; dose 6.3 g/a
  G: water foxtail, herbicidal effect (evaluation scale 0-5): 5 (mortality of 90% or above (nearly complete death))
Common ragweed [16]; dose 6.3 g/a
  J: common ragweed, herbicidal effect (evaluation scale 0-5): 5 (mortality of 90% or above (nearly complete death))
Large crabgrass [17]; dose 6.3 g/a
  D: large crabgrass, herbicidal effect (evaluation scale 0-5): 5 (mortality of 90% or above (nearly complete death))
Giant foxtail [18]; dose 6.3 g/a
  E: giant foxtail, herbicidal effect (evaluation scale 0-5): 5 (mortality of 90% or above (nearly complete death))
Barnyardgrass [19]; dose 6.3 g/a
  A: barnyardgrass, herbicidal effect (evaluation scale 0-5): 5 (mortality of 90% or above (nearly complete death))
Common chickweed [20]; dose 6.3 g/a
  N: common chickweed, herbicidal effect (evaluation scale 0-5): 5 (mortality of 90% or above (nearly complete death))
Redroot pigweed [21]; dose 6.3 g/a
  K: redroot pigweed, herbicidal effect (evaluation scale 0-5): 5 (mortality of 90% or above (nearly complete death))
Wild oat [22]; dose 6.3 g/a
  F: wild oat, herbicidal effect (evaluation scale 0-5): 3 (mortality of at least 40% and less than 70%)
Posumbu knotweed [23]; dose 6.3 g/a
  M: posumbu knotweed, herbicidal effect (evaluation scale 0-5): 5 (mortality of 90% or above (nearly complete death))
Velvetleaf [24]; dose 6.3 g/a
  I: velvetleaf, herbicidal effect (evaluation scale 0-5): 5 (mortality of 90% or above (nearly complete death))
Ducksalad [25]
  C: ducksalad, herbicidal effect (evaluation scale 0-5): 5 (mortality of 90% or above (nearly complete death))
Barnyardgrass [26]
  A: barnyardgrass, herbicidal effect (evaluation scale 0-5): 5 (mortality of 90% or above (nearly complete death))
Bulrush [27]
  B: bulrush, herbicidal effect (evaluation scale 0-5): 5 (mortality of 90% or above (nearly complete death))
Transplanted rice
  a: transplanted rice, effect on crop (evaluation scale 0-5): 1 (mortality of at least 5% and less than 20%)
Ducksalad [28]
  C: ducksalad, herbicidal effect (evaluation scale 0-5): 5 (mortality of 90% or above (nearly complete death))
Barnyardgrass [29]
  A: barnyardgrass, herbicidal effect (evaluation scale 0-5): 5 (mortality of 90% or above (nearly complete death))
Bulrush [30]
  B: bulrush, herbicidal effect (evaluation scale 0-5): 5 (mortality of 90% or above (nearly complete death))
